Like-named read-outs stand apart in the source and are kept apart here.
Tests used:
PI3Kα [1] = molecular target: T1, PI3Kα (Homo sapiens, UniProt P42336); assay: Biochemical assay of PI3K potency and selectivity using 20 μM ATP, Alpha; conditions: for Alpha/Delta Ratio / IC50: 20 μM ATP; for Alpha/Delta Ratio: ratio of IC50 values, > = hypothetical ratio with 100 μM substituted for the missing IC50; for IC50: read-out: Alpha IC50
T1 construct: His tag (pFastbac HTb vector) (N); FLAG; made in house; host or cells: Sf21 insect cells (baculovirus)
T1 sequence (P42336 whole entry): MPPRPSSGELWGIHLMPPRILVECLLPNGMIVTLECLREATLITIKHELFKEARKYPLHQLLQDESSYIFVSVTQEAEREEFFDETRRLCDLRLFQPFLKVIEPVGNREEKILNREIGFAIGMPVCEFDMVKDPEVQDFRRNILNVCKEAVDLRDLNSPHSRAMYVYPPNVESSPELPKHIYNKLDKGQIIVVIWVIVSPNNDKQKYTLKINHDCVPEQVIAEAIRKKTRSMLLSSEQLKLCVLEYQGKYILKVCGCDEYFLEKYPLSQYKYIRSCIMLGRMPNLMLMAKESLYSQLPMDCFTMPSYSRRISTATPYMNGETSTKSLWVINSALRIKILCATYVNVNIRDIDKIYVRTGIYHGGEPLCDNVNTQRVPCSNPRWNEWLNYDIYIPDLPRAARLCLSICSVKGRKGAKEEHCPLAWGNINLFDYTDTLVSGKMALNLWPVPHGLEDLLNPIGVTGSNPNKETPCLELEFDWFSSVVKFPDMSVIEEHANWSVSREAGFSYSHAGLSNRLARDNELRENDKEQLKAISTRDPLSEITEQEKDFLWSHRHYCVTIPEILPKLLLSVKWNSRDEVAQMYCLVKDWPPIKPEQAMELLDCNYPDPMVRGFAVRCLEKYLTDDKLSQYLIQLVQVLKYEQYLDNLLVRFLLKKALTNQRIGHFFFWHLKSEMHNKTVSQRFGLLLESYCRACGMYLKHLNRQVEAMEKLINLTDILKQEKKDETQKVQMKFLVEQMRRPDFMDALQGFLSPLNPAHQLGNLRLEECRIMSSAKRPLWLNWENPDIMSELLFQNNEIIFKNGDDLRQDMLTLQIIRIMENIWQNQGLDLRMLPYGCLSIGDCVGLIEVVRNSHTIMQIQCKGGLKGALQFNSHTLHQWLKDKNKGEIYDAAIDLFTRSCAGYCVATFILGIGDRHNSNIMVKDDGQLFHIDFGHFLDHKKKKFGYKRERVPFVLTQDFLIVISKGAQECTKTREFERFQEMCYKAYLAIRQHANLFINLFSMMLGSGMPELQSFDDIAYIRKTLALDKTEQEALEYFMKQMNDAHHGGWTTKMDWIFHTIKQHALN
T1 sequence (P27986 whole entry partner): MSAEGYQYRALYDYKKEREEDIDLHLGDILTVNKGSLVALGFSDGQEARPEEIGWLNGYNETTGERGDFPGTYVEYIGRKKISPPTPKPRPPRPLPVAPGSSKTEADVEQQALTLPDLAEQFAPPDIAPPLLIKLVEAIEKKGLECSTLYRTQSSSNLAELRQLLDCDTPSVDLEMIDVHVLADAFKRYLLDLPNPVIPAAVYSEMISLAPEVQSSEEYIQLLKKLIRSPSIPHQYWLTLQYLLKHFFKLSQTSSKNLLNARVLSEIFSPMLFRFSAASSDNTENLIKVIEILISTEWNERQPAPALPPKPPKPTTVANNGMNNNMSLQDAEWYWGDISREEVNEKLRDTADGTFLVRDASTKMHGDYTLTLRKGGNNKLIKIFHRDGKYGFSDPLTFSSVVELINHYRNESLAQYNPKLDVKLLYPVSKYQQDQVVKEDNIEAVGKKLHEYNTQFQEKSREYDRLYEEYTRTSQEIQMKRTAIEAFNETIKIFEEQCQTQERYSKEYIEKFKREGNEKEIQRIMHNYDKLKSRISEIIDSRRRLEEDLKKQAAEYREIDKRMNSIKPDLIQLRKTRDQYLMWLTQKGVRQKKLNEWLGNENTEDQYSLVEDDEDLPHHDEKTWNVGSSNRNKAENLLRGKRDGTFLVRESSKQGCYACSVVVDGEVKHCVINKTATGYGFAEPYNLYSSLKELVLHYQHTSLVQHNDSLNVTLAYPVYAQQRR
Excerpt: (§1) Recombinant PI3K heterodimeric complexes consisting of a p110 catalytic subunit and a p85 regulatory subunit were overexpressed using the BAC-TO-BAC® HT baculovirus expression system (GIBCO/BRL), and then purified for use in biochemical assays. The four Class I PI 3-kinases were cloned into baculovirus vectors as follows: […]

PI3Kβ [2] = molecular target: T2, PI3Kβ (Homo sapiens, UniProt P42338); assay: Biochemical assay of PI3K potency and selectivity using 20 μM ATP, Beta; conditions: 20 μM ATP; for Beta/Delta Ratio: ratio of IC50 values, > = hypothetical ratio with 100 μM substituted for the missing IC50; for remaining activity at 100 µM: read-out: Beta: percent activity remaining at 100 μM, 100 μM compound did not inhibit by at least 50%; for IC50: read-out: Beta IC50
T2 construct: His tag (pFastbac HTa vector) (N); FLAG (N); made in house; host or cells: Sf21 insect cells (baculovirus)
T2 sequence (P42338 whole entry): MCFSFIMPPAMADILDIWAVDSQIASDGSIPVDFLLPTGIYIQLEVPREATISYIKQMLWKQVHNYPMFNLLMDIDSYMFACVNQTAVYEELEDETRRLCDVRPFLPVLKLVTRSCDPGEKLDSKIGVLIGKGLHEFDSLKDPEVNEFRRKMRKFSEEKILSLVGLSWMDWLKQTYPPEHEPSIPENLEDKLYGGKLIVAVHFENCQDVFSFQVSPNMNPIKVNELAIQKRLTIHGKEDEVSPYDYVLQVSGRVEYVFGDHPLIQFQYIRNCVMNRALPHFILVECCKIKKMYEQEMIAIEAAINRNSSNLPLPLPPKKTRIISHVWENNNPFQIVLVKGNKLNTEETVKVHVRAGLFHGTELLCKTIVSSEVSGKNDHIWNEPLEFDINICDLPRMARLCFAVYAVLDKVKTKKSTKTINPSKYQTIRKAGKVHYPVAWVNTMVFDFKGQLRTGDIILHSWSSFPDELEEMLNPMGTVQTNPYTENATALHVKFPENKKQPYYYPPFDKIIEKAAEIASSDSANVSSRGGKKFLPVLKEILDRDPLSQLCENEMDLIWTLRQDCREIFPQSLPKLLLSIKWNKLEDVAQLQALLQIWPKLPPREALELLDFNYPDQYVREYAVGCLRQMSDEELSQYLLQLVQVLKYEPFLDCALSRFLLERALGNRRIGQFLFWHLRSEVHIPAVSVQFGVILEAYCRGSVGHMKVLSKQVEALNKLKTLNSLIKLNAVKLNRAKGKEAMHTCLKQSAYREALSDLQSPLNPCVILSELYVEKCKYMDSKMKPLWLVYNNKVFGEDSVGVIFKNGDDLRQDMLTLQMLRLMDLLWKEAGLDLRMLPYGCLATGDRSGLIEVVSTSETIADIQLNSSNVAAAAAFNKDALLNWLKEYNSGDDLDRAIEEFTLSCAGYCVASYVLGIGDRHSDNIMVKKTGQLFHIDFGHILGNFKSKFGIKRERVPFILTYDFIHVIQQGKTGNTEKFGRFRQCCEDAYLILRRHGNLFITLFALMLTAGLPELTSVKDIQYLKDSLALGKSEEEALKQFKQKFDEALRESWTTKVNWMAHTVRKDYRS
T2 sequence (P27986 whole entry partner): as the sequence (P27986 whole entry partner) above
Experimental: Recombinant PI3K heterodimeric complexes consisting of a p110 catalytic subunit and a p85 regulatory subunit were overexpressed using the BAC-TO-BAC® HT baculovirus expression system (GIBCO/BRL), and then purified for use in biochemical assays. The four Class I PI 3-kinases were cloned into baculovirus vectors as follows:
The 3× substrate for the HTS contained 0.6 mM Na2ATP, 0.10 mCi/mL γ-[^32P]ATP (NEN, Pittsburgh, Pa.), 6 μM PIP2/PS liposomes (Avanti Polar Lipids, Inc., […].), in 20 mM HEPES, pH 7.4.

[3] = system: Murine splenocytes (Balb/c); assay: B cell proliferation in response to cell surface IgM stimulation; assay type: cell-based; conditions: Mus musculus, Splenocyte; stimulated B cell proliferation; read-out: Mouse BCR Stim (EC50)
Experimental: In the above experiment, the B cells were stimulated using PANSORBIN®. The effect of D-000 on B cell proliferation response when they were stimulated through their cell surface IgM using anti-IgM antibody also was measured. Murine splenocytes (Balb/c) were plated into 96-well microtiter plates at 2×10^5 cells per well in 10% FBS/RPMI. Appropriate dilutions of test inhibitor in complete medium were added to the cells and the plates were incubated for 30-60 minutes prior to the addition of stimulus. Following the preincubation with test inhibitor an F(ab′)2 preparation of goat antibody specific for the μ-chain of mouse IgM was added to the wells at a final concentration of 25 μg/mL. The plates were incubated at 37° C. for 3 days and 1 μCi of [^3H]-thymidine was added to each well for the final four hours of culture. The plates were harvested onto fiber filters washed and the incorporation of radiolabel was determined using a beta counter (Matrix 96, Packard Instrument Co., Downers Grove, Ill.) and expressed as counts per minute (CPM).
(§2) Using the methods described in Examples 3-5, above, compounds of the invention were tested for inhibitory activity and potency in assays of stimulated B and T cell proliferation, neutrophil (PMN) migration, and neutrophil (PMN) elastase release. In Table 4, the values shown are effective concentrations of the compound (EC50; μM). Where no value is given, no assay was performed.

T cell proliferation = assay: Stimulated T cell proliferation (Mouse TCE Stim, Table 4); assay type: cell-based; conditions: stimulated T cell proliferation, read-out: Mouse TCE Stim (EC50)
PI3Kδ [4] = molecular target: T3, PI3Kδ (Homo sapiens, UniProt O00329, S253N); assay: Biochemical assay of PI3K potency and selectivity using 20 μM ATP, Delta; parameters: His tag (pFastbac HTb vector) (N); FLAG; made in house; host or cells: Sf21 insect cells (baculovirus); conditions: 20 μM ATP; read-out: Delta IC50
T3 sequence (O00329 whole entry S253N): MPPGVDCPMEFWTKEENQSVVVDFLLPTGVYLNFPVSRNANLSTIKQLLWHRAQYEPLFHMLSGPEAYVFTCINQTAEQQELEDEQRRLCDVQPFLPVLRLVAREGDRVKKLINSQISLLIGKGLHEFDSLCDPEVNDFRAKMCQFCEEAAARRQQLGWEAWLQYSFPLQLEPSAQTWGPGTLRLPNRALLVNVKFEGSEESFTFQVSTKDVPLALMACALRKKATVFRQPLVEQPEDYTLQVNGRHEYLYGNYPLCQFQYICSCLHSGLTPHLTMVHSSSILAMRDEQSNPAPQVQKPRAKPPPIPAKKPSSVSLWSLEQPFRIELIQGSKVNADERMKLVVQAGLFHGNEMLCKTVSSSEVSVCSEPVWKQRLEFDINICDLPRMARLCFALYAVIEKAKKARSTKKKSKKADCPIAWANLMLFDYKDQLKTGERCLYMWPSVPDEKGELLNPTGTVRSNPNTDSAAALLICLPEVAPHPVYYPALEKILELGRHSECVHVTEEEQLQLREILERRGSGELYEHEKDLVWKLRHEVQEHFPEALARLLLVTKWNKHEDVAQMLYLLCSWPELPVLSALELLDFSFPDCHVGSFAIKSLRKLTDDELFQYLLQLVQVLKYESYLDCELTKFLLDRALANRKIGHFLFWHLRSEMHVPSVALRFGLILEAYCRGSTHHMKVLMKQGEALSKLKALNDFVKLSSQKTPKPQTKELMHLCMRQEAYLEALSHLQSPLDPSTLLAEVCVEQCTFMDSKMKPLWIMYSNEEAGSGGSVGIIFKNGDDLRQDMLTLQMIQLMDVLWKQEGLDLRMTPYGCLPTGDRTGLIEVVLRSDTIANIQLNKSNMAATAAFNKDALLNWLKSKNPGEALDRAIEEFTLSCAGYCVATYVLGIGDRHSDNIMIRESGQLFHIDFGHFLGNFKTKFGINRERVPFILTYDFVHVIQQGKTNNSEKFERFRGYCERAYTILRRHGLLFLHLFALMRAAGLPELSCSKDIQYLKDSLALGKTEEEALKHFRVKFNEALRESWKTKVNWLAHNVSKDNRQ
T3 sequence (P27986 whole entry partner): as the sequence (P27986 whole entry partner) above
Excerpt: as §1

PI3Kγ [5] = molecular target: T4, PI3Kγ (Homo sapiens, UniProt P48736); assay: Biochemical assay of PI3K potency and selectivity using 20 μM ATP, Gamma; conditions: for Gamma/Delta Ratio: ratio of IC50 values
T4 construct: His tag (pFastbac HTb vector) (N); FLAG (N); made in house; host or cells: Sf21 insect cells (baculovirus)
T4 sequence (P48736 whole entry): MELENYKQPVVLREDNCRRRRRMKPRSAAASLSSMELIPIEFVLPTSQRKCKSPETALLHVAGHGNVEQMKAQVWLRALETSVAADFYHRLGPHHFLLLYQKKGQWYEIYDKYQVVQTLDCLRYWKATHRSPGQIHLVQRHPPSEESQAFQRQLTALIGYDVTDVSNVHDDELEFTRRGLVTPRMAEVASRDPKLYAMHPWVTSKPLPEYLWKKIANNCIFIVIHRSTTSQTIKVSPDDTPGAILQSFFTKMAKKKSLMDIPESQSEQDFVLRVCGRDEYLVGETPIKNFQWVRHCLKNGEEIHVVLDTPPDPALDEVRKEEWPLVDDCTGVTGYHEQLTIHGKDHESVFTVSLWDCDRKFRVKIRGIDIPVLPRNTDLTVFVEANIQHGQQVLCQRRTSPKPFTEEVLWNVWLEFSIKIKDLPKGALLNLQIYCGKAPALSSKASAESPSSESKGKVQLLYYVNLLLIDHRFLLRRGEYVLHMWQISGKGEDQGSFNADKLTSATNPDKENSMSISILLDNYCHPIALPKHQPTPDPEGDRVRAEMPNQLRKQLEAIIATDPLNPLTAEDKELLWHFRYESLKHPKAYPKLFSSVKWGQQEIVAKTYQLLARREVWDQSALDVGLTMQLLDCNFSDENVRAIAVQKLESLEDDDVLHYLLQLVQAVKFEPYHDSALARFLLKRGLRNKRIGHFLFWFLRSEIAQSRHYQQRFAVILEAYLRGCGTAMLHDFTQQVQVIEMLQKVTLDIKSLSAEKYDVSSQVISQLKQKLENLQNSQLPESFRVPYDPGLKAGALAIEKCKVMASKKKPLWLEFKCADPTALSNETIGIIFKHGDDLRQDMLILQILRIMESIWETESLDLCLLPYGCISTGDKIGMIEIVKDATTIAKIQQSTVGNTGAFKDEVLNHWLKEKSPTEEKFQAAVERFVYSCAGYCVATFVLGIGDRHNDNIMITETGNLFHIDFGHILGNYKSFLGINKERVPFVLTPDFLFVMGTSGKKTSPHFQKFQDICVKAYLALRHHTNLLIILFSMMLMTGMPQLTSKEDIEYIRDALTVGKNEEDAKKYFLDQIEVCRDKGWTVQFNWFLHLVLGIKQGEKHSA
Excerpt: Recombinant baculoviruses containing the above clones were generated using manufacturer's recommended protocol (Life Technologies). Baculoviruses expressing His-tagged p110α, p110γ, or p110δ catalytic subunit and p85 subunit were coinfected into Sf21 insect cells. To enrich the heterodimeric enzyme complex, an excess amount of baculovirus expressing p85 subunit was infected, and the His-tagged p110 catalytic subunit complexed with p85 was purified on nickel affinity column. […] In an alternate approach, p101 can be cloned into baculovirus, to permit coexpression with its preferred binding partner p110γ. […]

PI3Kα [6] = molecular target: T1, PI3Kα; assay: Biochemical assay using 200 μM ATP, Alpha
Experimental: (§3) PI3Kδ catalyzes a phosphotransfer from γ-[^32P]ATP to PIP2/PS liposomes at the D3′ position of the PIP2 lipid inositol ring. This reaction is MgCl2 dependent and is quenched in high molarity potassium phosphate buffer pH 8.0 containing 30 mM EDTA. […] The reaction products (and all unlabelled products) are transferred to a 96-well, prewetted PVDF filter plate, filtered, and washed in high molarity potassium phosphate. Scintillant is added to the dried wells and the incorporated radioactivity is quantitated.
(§4) This dilution established a final concentration of 200 μM ATP in the reaction volume. The reaction was stopped with 150 μL quench buffer (1.0 M potassium phosphate pH 8.0, 30 mM EDTA). A portion of the quenched solution (180 μL) was then transferred to a PVDF filter plate (Millipore # MAIP NOB prewetted with sequential 200 μL washes of 100% methanol, water, and finally 1.0 M potassium phosphate pH 8.0 wash buffer).
(§5) The PVDF filter plate was aspirated under moderate vacuum (2-5 mm Hg), washed with 5×200 μL of wash buffer, and then dried by aspiration. The filter was subsequently blotted, allowed to air dry completely, and inserted into a Wallac counting cassette with 50 μL of Ecoscint scintillation cocktail added per well.
(§6) Subsequent selectivity assays were done similarly using the same 3× substrate stocks except they contained 0.05 mCi/mL γ[^32P]ATP and 3 mM PIP2. Subsequent selectivity assays also used the same 3× enzyme stocks, except they now contained 3 nM of any given PI3K isoform.
(§7) For all selectivity assays, the test compounds were weighed out and dissolved into 10-50 mM stocks in 100% DMSO (depending on their respective solubilities) and stored at −20° C. […] From these dilutions, 20 μL was added into the assay wells alongside water blanks used for the enzyme (positive) control and the no enzyme (background) control.
(§8) This selectivity protocol is identical to that described above, except the 3× stock ATP concentration was 600 μM.

PI3Kβ [7] = molecular target: T2, PI3Kβ; assay: Biochemical assay using 200 μM ATP, Beta
Experimental: as §3, §4, §5, §6, §7, §8

PI3Kγ [8] = molecular target: T4, PI3Kγ; assay: Biochemical assay using 200 μM ATP, Gamma
Experimental: as §3, §4, §5, §6, §7, §8

human neutrophils = assay: Elastase exocytosis from neutrophils (fMLP-induced); assay type: cell-based; conditions: neutrophil (PMN) elastase release
Experimental: Aliquots (8 mL) of heparinized blood from healthy volunteers were layered on 3 mL cushions of 7.3% FICOLL® (Sigma, St. Louis, Mo.) and 15.4% HYPAQUE® (Sigma) and centrifuged at 900 rpm for 30 min at room temperature in a table top centrifuge (Beckman). The neutrophil-rich band just above the FICOLL®-HYPAQUE® cushion was collected and washed with Hanks' balanced salt solution (HBSS) containing 0.1% gelatin. Residual erythrocytes were removed by hypotonic lysis with 0.2% NaCl. The neutrophil preparation was washed twice with HBSS containing 0.1% gelatin and used immediately.
In addition to superoxide generation, activated neutrophils also respond by releasing several proteases that are responsible for the destruction of tissues and cartilage during inflammation. As an indication of protease release, the effect of D-000 on elastase exocytosis was measured. Elastase exocytosis was quantitated by modification of the procedure described by Ossanna et al. (J Clin Invest, 77:1939-1951 (1986)), as follows. Purified human neutrophils (0.2×10^6) (treated with either DMSO or a serial dilution of D-000 in DMSO) were stimulated with fMLP in PBS containing 0.01 mg/mL cytochalasin B, 1.0 μM sodium azide (NaN3), 5 μg/mL L-methionine and 1 μM fMLP for 90 min at 37° C. in a 96-well plate. At the end of the incubation period, the plate was centrifuged for 5 min at 1000 rpm, and 90 μL of the supernatant was transferred to 10 μL of 10 mM solution of an elastase substrate peptide, MeO-suc-Ala-Ala-Pro-Val-pNA, wherein MeO-suc=methoxy-succinyl; pNA=p-nitroanilide (Calbiochem, San Diego, Calif.). Absorbance at 410 nm was monitored for 2 hr in a 96-well plate reader. To measure the relative amounts of elastase excytosed, all absorbance values were normalized to the values without any inhibitor. […] Inhibition was half-maximal at a concentration of about 2-3 μM D-000.
as §2

PI3Kδ [9] = molecular target: T3, PI3Kδ; assay: Biochemical assay using 200 μM ATP, Delta;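 further: radiometric filter-binding assay: PI3Kδ transfers ³²P from γ-[³²P]ATP onto PIP2/PS liposomes, counted by scintillation, enzyme-only wells as positive control, no-enzyme wells as background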
Experimental: as §3, §4, §5, §6, §7, §8

[10] = read-out: percent activity remaining at 100 μM, 20 μM ATP, 100 μM compound did not inhibit by at least 50%

remaining activity at 100 µM (PI3Kα [1]; [10]) | Compound | Alpha/Delta Ratio (PI3Kα [1]) | IC50 (PI3Kα [1]) | Beta/Delta Ratio (PI3Kβ [2]) | remaining activity at 100 µM (PI3Kβ [2]) | EC50 [3] | EC50 (T cell proliferation) | melting point | IC50 (PI3Kδ [4]) | IC50 (PI3Kβ [2]) | IC50 (PI3Kγ [5]) | Gamma/Delta Ratio (PI3Kγ [5]) | Alpha/Delta Ratio (PI3Kα [6]) | Beta/Delta Ratio (PI3Kβ [7]) | IC50 (PI3Kβ [7]) | Gamma/Delta Ratio (PI3Kγ [8]) | IC50 (PI3Kγ [8]) | EC50 (human neutrophils) | IC50 (PI3Kδ [9]) | remaining activity at 100 µM (PI3Kα [1]; read-out: percent activity remaining at 100 μM)
– | Nc1ncnc2c1ncn2Cc1nc2cc(F)ccc2c(=O)n1-c1ccccc1Cl [Compound D-003, 2-(6-Aminopurin-o-ylmethyl)-3-(2-chlorophenyl)-7-fluoro-3N-quinazolin-4-one] | 22 | 92 µM | >24 | 53% | 3900 nM | 5.7 µM | 216.8 to 217.2 °C | 4000 nM | – | – | – | – | – | – | – | – | – | – | –
– | Cc1ccccc1-n1c(CSc2ncnc3[nH]cnc23)nc2cccc(Cl)c2c1=O [Compound D-010, 5-Chloro-2-(9H-purin-6-ylsulfanylmethyl)-3-o-tolyl-3H-quinazolin-4-one] | 800 | 48 µM | 183 | – | 200 ± 100 nM | – | 213.9 °C | 60 nM | 11 µM | 700 nM | 12 | 658 | 144 | 33 ± 4 µM | 27 | 6 ± 3 µM | 300 ± 300 nM | 230 ± 200 nM | –
71% | O=c1c2c(Cl)cccc2nc(CSc2ncnc3[nH]cnc23)n1-c1ccccc1-c1ccccc1 [Compound D-013, 3-Biphenyl-2-yl-5-chloro-2-(9H-purin-6-ylsulfanylmethyl)-3H-quinazolin-4-one] | >2,000 | – | 260 | – | 1400 nM | – | 222 to 222.5 °C (dec.) | 50 nM | 13 µM | 2100 nM | 42 | 461 | 289 | – | 24 | 12 ± 1 µM | – | 510 ± 600 nM | –
– | CC(=O)O.O=c1c2ccccc2nc(CSc2ncnc3[nH]cnc23)n1N1CCOCC1 [Compound D-039, 3-morpholin-4-yl-2-(9H-purin-6-ylsulfanylmethyl)-3H-quinazolin-4-one, acetate salt] | >111 | – | >111 | 66% | 900 ± 100 nM | – | – | 900 nM | – | 38000 nM | 42 | 65 | 50 | – | 44 | – | 5000 nM | 2600 nM | 77%
83% | O=c1c2c(F)cccc2nc(CSc2ncnc3[nH]cnc23)n1Cc1ccccc1 [Compound D-043, 3-benzyl-5-fluoro-2-(9H-purin-6-ylsulfanylmethyl)-3H-quinazolin-4-one] | >47 | – | >47 | 77% | 1400 nM | 2.6 µM | – | 2100 nM | – | – | – | – | – | – | – | – | – | – | –
– | COc1ccccc1-n1c(CSc2ncnc3[nH]cnc23)nc2cccc(C)c2c1=O [Compound D-047, 3-(2-methoxyphenyl)-5-methyl-2-(9H-purin-6-ylsulfanylmethyl)-3H-quinazolin-4-one] | 333 | 30 µM | 100 | – | 300 nM | – | – | 90 nM | 9 µM | 500 nM | 5.6 | 810 | 150 | 30 µM | 23 | 4.5 µM | 500 ± 200 nM | 200 nM | –

Compound | remaining activity at 100 µM (PI3Kα [1]; [10]) | Alpha/Delta Ratio (PI3Kα [1]) | IC50 (PI3Kα [1]) | Beta/Delta Ratio (PI3Kβ [2]) | remaining activity at 100 µM (PI3Kβ [2]) | EC50 [3] | EC50 (T cell proliferation) | melting point | IC50 (PI3Kδ [4]) | IC50 (PI3Kβ [2]) | IC50 (PI3Kγ [5]) | Gamma/Delta Ratio (PI3Kγ [5]) | Alpha/Delta Ratio (PI3Kα [6]) | Beta/Delta Ratio (PI3Kβ [7]) | IC50 (PI3Kβ [7]) | Gamma/Delta Ratio (PI3Kγ [8]) | IC50 (PI3Kγ [8]) | EC50 (human neutrophils) | IC50 (PI3Kδ [9]) | remaining activity at 100 µM (PI3Kα [1]; read-out: percent activity remaining at 100 μM)
O=c1c2c(Cl)cccc2nc(CSc2ncnc3[nH]cnc23)n1-c1ccccc1F [Compound D-011, 5-Chloro-3-(2-fluorophenyl)-2-(9H-purin-6-ylsulfanylmethyl)-3H-quinazolin-4-one] | 72% | >1,000 | – | 550 | – | 300 ± 100 nM | – | 244 °C | 100 nM | 55 µM | 1000 nM | 10 | 700 | 420 | 105 ± 35 µM | 244 | 61 ± 70 µM | 900 ± 700 nM | 250 ± 200 nM | –

Source: patent publication US20200061062A1, “INHIBITORS OF HUMAN PHOSPHATIDYLINOSITOL 3-KINASE DELTA” (ICOS Corporation, priority 2000, published 2020)
